According to ChEMBL document CHEMBL1201862, “PubChem BioAssay data set” (2004):
Activity calls are given as the source filed them.

Key:
[1] = biological target: T1, Tyrosine-protein phosphatase non-receptor type 7 (Homo sapiens, UniProt P35236); test: redox-dependent HePTP inhibition, mechanism study, biochemical, fluorescence (AID 2068); type: functional
T1 sequence (P35236 whole entry): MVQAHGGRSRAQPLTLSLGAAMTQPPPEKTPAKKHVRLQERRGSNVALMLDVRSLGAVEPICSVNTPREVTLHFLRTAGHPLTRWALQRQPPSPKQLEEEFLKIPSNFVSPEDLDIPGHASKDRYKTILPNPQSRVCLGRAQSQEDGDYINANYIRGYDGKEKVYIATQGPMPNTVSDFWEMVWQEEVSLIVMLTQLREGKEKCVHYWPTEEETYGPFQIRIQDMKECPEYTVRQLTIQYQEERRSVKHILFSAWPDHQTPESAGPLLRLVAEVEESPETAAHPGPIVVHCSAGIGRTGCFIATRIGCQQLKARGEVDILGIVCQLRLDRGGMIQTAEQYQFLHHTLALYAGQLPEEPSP

[2] = biological target: Glyceraldehyde-3-phosphate dehydrogenase (Homo sapiens, UniProt P04406)
Glyceraldehyde-3-phosphate dehydrogenase, sequence (P04406 whole entry): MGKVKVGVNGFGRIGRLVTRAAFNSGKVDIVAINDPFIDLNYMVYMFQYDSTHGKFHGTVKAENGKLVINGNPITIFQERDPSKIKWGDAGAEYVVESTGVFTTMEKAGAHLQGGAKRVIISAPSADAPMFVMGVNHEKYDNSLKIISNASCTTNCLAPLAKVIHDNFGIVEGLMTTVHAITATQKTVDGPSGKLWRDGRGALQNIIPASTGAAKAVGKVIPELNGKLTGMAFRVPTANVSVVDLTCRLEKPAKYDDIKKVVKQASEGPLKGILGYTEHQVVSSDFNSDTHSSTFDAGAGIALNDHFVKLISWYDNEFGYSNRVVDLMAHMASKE

INS1 = test: beta cell apoptosis inhibitors, cytokine rescue, dose response, luminescence, retest (AID 449756); type: functional, cell-based; details: Rattus norvegicus;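 also: cell death triggered by IL-1 beta plus TNF-alpha plus IFN-gamma mixture; protective hits raise ATP signal compared with cytokine alone wells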
[3] = system: Streptococcus sp. 'group A'; test: growth inhibition of control SK(-) GAS strain, dose response, counter-screen for streptokinase expression inhibitor project, luminescence, kanamycin, BacTiterGlo, confirmation (AID 1900); type: functional, organism-based
[4] = biological target: Luciferin 4-monooxygenase (Photinus pyralis, UniProt P08659); test: Counter Screen for Luciferase-based Assay Positives. [Related pubchem assays: 620, 618, 411 ]
Luciferin 4-monooxygenase, sequence (P08659 whole entry): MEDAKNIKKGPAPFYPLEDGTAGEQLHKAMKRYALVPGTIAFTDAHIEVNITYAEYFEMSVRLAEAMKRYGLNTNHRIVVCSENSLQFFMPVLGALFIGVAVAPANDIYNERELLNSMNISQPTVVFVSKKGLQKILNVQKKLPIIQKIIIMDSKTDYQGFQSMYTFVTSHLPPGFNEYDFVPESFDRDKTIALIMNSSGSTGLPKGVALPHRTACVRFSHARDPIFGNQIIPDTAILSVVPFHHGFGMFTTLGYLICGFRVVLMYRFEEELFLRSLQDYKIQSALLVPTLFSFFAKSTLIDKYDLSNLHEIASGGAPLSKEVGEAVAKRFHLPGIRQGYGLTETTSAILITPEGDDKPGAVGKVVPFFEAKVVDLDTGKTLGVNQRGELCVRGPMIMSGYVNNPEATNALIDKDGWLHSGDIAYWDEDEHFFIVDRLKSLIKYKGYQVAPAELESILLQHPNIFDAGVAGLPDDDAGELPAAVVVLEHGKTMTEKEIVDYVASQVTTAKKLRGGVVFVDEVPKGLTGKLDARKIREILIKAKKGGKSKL

[5] = microbe, parasite or virus in culture; type: functional; details: Mycobacterium tuberculosis
[6] = Artemis endonuclease inhibitor potency, dose response, biochemical, fluorescence intensity (AID 720701); type: functional;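 also: Artemis endonuclease enzyme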
Streptokinase A = biological target: T2, Streptokinase A (Streptococcus pyogenes serotype M1, UniProt P10520); test: S. pyogenes streptokinase expression inhibitors, potency, dose response, plasminogen activation absorbance, OD405 (AID 1914); type: functional, Streptococcus pyogenes M1 GAS;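 also: secreted streptokinase activity via plasminogen activation per viability signal from cell pellet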
T2 sequence (P10520 whole entry): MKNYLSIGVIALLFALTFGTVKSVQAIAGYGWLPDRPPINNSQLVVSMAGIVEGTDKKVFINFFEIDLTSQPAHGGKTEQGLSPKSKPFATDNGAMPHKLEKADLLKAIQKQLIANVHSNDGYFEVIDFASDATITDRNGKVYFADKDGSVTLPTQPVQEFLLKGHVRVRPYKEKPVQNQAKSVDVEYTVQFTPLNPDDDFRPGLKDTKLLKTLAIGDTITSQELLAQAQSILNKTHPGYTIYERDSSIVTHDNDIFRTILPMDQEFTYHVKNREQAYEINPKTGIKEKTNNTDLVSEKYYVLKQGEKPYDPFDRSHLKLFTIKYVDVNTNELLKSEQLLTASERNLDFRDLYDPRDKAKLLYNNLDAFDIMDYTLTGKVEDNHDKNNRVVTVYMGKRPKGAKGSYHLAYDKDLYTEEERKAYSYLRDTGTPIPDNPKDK

Streptococcus = test: Group A Streptococcus viability loss, dose response, counter-screen for streptokinase expression inhibitor project, luminescence, BacTiterGlo (AID 1915); type: functional, organism-based;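 also: potency for reduction of bacterial viability or growth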
HT-1080 = test: cytotoxicity in HT1080 fibrosarcoma cells, cell-based, fluorescence readout (AID 620); type: functional; details: Homo sapiens
[7] = biological target: G-protein coupled receptor 55 (Homo sapiens, UniProt Q9Y2T6); test: GPR55 agonists via beta-arrestin recruitment, primary screen, imaging, U2OS cells, beta-arrestin-GFP redistribution (AID 1961); type: functional
G-protein coupled receptor 55, sequence (Q9Y2T6 whole entry): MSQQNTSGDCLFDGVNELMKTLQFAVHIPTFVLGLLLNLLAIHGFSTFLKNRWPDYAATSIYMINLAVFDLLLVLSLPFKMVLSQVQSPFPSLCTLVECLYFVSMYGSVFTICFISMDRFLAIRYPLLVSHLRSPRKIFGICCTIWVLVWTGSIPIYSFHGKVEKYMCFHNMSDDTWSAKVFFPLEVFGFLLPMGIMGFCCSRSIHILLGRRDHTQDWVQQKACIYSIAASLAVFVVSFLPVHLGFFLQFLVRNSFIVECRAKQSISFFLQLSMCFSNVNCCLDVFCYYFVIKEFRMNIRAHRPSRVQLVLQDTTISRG

NADPH oxidase 3 = NADPH oxidase 3 (Homo sapiens, UniProt Q9HBY0); test: PubChem AID 435013
NADPH oxidase 3, sequence (Q9HBY0 whole entry): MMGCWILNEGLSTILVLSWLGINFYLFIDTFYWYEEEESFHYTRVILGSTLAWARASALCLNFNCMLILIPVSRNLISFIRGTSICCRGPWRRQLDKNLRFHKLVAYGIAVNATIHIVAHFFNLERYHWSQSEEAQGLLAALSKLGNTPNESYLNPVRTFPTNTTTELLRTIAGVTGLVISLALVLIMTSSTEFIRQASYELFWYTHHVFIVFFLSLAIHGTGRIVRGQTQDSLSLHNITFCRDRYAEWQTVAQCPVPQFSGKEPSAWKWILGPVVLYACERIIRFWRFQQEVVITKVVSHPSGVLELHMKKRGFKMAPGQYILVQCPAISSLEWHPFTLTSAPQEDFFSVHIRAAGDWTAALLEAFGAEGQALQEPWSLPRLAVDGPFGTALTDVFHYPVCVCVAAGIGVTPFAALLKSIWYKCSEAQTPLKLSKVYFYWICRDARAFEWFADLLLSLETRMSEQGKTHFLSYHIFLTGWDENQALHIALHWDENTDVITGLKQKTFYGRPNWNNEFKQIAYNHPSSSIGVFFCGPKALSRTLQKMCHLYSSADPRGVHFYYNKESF

NADPH oxidase 4 = NADPH oxidase 4 (Homo sapiens, UniProt Q9NPH5); test: PubChem AID 435013
NADPH oxidase 4, sequence (Q9NPH5 whole entry): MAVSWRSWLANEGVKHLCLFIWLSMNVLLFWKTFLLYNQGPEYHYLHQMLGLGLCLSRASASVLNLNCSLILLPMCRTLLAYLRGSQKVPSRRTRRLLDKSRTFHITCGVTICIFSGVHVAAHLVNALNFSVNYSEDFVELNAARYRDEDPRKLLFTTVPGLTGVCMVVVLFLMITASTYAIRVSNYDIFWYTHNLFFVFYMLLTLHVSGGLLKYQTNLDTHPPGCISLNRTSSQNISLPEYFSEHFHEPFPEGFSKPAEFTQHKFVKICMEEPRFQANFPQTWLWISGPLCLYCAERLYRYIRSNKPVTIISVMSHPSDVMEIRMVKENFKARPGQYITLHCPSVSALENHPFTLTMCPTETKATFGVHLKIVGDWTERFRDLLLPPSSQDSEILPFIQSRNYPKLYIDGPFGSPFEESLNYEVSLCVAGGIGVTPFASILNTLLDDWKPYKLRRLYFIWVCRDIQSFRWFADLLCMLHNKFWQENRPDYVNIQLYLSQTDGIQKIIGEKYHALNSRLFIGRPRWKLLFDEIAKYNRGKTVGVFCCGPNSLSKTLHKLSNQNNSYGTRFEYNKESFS

NADPH oxidase 2 = NADPH oxidase 2 (Homo sapiens, UniProt P04839); test: PubChem AID 435013
NADPH oxidase 2, sequence (P04839 whole entry): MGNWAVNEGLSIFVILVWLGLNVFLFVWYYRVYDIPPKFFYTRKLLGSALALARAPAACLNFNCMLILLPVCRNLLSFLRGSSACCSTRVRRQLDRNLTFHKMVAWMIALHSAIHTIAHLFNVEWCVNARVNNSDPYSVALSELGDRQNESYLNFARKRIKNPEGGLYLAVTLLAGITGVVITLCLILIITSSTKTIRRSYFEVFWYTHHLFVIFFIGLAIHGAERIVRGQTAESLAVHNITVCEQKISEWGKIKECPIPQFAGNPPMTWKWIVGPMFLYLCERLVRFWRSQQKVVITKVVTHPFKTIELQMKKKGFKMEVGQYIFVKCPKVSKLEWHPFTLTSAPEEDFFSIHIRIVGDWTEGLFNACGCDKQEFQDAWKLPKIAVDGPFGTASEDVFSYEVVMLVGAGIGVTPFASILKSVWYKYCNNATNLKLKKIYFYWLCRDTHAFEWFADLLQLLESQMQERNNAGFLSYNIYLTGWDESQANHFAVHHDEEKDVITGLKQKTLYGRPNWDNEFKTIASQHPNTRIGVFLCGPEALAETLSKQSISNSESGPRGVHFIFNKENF

NADPH oxidase 1 = NADPH oxidase 1 (Homo sapiens, UniProt Q9Y5S8); test: Late stage results from the probe development effort to identify inhibitors of NOX1: HEK/293 IC50. [Related pubchem assays: 1796 (Summary AID (NOX1)), 2752 (Primary screen (NOX1 inhibitors, synthesized analogs set 2)), 2664 (Primary screen (NOX1 inhibitors, synthesized analogs)), 1792 (Primary Screen (NOX1)), 2545 (Confirmation screen (NOX1 …; type: functional
[8] = biological target: T3, Runt-related transcription factor 1/Core-binding factor subunit beta (Homo sapiens, UniProt Q01196+Q13951); test: inhibitors of RUNX1 Runt–CBFb-SMMHC binding, biochemical, TR-FRET (AID 1438); type: protein assay
T3 sequence (Q01196 whole entry, the tested form may be a part): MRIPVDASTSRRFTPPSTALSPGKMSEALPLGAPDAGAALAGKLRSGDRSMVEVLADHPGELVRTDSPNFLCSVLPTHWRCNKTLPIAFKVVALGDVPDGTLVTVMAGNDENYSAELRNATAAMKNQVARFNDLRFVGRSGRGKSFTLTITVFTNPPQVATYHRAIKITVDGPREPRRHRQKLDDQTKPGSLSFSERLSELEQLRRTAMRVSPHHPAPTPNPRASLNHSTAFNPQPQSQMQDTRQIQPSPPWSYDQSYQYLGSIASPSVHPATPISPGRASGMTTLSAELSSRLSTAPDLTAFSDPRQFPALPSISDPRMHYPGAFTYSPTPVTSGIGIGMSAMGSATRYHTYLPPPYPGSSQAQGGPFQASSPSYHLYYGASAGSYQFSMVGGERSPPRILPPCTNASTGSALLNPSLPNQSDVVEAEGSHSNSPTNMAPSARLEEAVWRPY
T3 sequence (Q13951 whole entry, the tested form may be a part): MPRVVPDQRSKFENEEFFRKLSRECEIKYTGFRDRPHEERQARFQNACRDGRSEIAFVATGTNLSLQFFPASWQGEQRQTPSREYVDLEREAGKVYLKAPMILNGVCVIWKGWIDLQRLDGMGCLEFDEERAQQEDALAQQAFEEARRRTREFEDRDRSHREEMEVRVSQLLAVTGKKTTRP

[9] = biological target: T3, Runt-related transcription factor 1/Core-binding factor subunit beta; test: inhibitors of RUNX1 Runt–CBFb-SMMHC binding, primary screen, biochemical, FRET, Cerulean-Runt, Venus-CBFb-SMMHC, uHTS (AID 1434); type: protein assay;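 also: partner is the CBFb-SMMHC leukemia fusion protein rather than wild-type CBFb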
[10] = biological target: E3 ubiquitin-protein ligase Mdm2/Protein Mdm4 (Homo sapiens, UniProt O15151+Q00987); test: Mdm2-MdmX interaction inhibitors, dose response, luminescence detection (AID 504593); type: functional
E3 ubiquitin-protein ligase Mdm2/Protein Mdm4, sequence (Q00987 whole entry): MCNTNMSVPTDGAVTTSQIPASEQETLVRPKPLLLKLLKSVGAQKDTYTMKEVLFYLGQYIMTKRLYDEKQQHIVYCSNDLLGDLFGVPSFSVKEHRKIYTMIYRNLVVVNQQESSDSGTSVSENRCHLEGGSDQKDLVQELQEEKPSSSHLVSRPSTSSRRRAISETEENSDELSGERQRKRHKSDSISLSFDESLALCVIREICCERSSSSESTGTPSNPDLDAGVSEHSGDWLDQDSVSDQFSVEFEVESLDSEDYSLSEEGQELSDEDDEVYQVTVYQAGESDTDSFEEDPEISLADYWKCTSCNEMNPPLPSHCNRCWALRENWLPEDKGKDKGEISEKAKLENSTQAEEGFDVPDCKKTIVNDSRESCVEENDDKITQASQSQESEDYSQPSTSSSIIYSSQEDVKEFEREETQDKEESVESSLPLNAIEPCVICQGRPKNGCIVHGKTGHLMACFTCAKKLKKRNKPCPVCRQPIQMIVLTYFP
E3 ubiquitin-protein ligase Mdm2/Protein Mdm4, sequence (O15151 whole entry): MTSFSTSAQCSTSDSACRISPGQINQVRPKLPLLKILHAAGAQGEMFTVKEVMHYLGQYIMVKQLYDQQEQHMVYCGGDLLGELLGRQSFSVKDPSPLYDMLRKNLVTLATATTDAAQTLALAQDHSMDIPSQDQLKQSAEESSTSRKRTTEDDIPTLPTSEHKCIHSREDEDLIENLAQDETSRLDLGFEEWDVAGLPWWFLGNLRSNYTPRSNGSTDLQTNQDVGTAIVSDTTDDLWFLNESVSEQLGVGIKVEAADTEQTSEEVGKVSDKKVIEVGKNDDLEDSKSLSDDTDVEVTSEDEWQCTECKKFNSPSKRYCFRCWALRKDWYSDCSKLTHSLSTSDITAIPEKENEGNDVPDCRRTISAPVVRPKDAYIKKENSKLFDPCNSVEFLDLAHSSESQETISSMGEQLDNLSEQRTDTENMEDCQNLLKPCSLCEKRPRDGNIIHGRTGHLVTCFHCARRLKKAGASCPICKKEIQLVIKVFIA

## CCCNC(=O)Nc1ccc2nc(-c3ccco3)c(-c3ccco3)nc2c1
[1]
  IC50: 1.01 µM (active)

## Cc1cc(/C=N/n2cnnc2)c(C)n1-c1ccc(OCc2ccc(Cl)cc2Cl)cc1
[2]
  IC50: > 100 µM (not active)
INS1
  AC50: 1.6 µM (active)
[3]
  EC50: 2.46 µM (active)
[4]
  EC50: 0.28 µM (active)
[5]
  CC50: 14.1 µM (active)
[6]
  IC50: 5.84 µM (active)
Streptokinase A
  EC50: > 150 µM (not active)
Streptococcus
  EC50: 4.73 µM (active)
HT-1080
  EC50: > 50 µM (not active)
[7]
  EC50: 1.35 µM (active)

## FC(F)(F)c1ccc2c(c1)Nc1ccccc1S2
NADPH oxidase 3
  IC50: 7.5 µM (active)
NADPH oxidase 4
  IC50: 5 µM (active)
NADPH oxidase 2
  IC50: 9 µM (active)
NADPH oxidase 1
  IC50: 1 µM (active)

## Cc1cc(C)n2nc3nc4c(cc3c2n1)CCCC4
[8]
  IC50: > 100 µM (inactive)
[9]
  IC50: 36.8 µM (active)

## COc1cc(-c2nc(-c3ccc(NC(=O)c4ccc5c(c4)OCO5)cc3)no2)cc(OC)c1OC
[10]
  IC50: 3.91 µM (active)
